16 compounds from patent publication US8853193B2, “Thienopyrimidines containing a substituted alkyl group for pharmaceutical compositions” (Boehringer Ingelheim International GmbH, priority 2010, dated 2014) can be followed below.

pIC50: −log10 of the molar value. Structures can show the parent of a compound that is named as a salt.

Chain of human Mnk2a (Q9HBH9 whole entry): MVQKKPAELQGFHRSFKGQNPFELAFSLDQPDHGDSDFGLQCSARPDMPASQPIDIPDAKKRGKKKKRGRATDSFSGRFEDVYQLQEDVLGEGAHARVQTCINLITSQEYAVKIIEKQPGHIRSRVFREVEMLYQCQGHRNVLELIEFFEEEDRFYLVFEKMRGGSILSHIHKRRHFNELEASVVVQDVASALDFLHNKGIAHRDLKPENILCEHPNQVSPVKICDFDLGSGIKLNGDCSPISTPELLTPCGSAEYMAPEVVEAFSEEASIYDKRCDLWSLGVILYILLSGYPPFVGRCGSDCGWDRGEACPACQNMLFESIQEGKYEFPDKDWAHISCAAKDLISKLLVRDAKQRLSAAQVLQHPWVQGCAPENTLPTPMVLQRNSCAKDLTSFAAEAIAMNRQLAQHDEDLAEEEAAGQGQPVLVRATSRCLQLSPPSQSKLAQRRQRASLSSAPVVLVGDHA

The test concerns the target human Mnk2a (Homo sapiens (Human), UniProt Q9HBH9). The test can be described thus: Mnk2a in vitro kinase assay (indirect competitive fluorescence polarization). Format: biochemical. Conditions: pre-activated GST-Mnk2a 2.5 nM, 20 μM ATP, 30 μM substrate peptide; read-out: MNK2 IC50. The gist of the method:
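GST-tagged human Mnk2a expressed in E. coli and glutathione-purified, then activated at 2.5 μM with 150 nM pre-activated NHis-ERK2 and 50 μM ATP in HEPES/KOH pH 7.4, MgCl2, DTT, Brij 78 for 45 min at 30 °C. Phospho-peptide product read by indirect competitive fluorescence polarization against fluorophore-labelled phospho-peptide bound to phospho-specific antibody.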
Turning to `Cc1c(C(=O)O)sc2ncnc(Nc3ccc(F)cc3OC(C)CNC(=O)OC(C)(C)C)c12` (stereo not shown) [Compound 1-2, 4-(2-(1-(tert-Butoxycarbonylamino)propan-2-yloxy)-4-fluorophenylamino)-5-methyl-thieno[2,3-d]pyrimidine-6-carboxylic acid], the negative-log IC50 (pIC50) was 7.28. The same measure for `Cc1c(C(=O)O)sc2ncnc(Nc3ccc(F)cc3OCC3CC3(F)F)c12` (stereo not shown) [Compound 32-5]: 8.10; for `Cc1c(C(=O)NCCO)sc2ncnc(Nc3cccnc3OC(C)C(F)(F)F)c12` (stereo not shown) [Compound 21-8, 5-Methyl-4-[2-(2,2,2-trifluoro-1-methyl-ethoxy)-pyridin-3-ylamino]-thieno[2,3-d]pyrimidine-6-carboxylic acid (4-hydroxy-ethyl)-amide]: 7.70. The same measure for `COC(=O)c1sc2ncnc(Nc3ccc(F)cc3OC(CN)CNS(C)(=O)=O)c2c1C` (stereo not shown) [Compound 19-2, Methyl 4-(2-(1-amino-3-(methyl-sulfonamido)-propan-2-yloxy)-4-fluoro-phenylamino)-5-methylthieno[2,3-d]pyrimidine-6-carboxylate trifluoroacetate]: 5.93; for `Cc1c(C(=O)NCCCN(C)C)sc2ncnc(Nc3cccnc3OC(C)CCNS(C)(=O)=O)c12` (stereo not shown) [Compound 46, 4-[2-(3-Methanesulfonylamino-1-methyl-propoxy)-pyridin-3-ylamino]-5-methyl-thieno[2,3-d]pyrimidine-6-carboxylic acid (3-dimethylamino-propyl)-amide]: 7.08. Next, `COCC(CF)Oc1cc(F)ccc1Nc1ncnc2sc(C(=O)NCCO)c(C)c12` (stereo not shown) [Compound 32-23]: 7.59; `Cc1c(C(N)=O)sc2ncnc(Nc3ccc(F)cc3OCC(F)F)c12` [Compound 32-17]: 7.80; `Cc1c(C(=O)NCCCN2CCCC2)sc2ncnc(Nc3ccc(F)cc3OC(CF)CF)c12` [Compound 23-10, 4-(2-(1,3-difluoro-propan-2-yloxy)-4-fluorophenylamino)-5-methyl-N-(3-(pyrrolidin-1-yl)propyl)thieno[2,3-d]pyrimidine-6-carboxamide]: 8.15. For the compound `Cc1c(C(N)=O)sc2ncnc(Nc3ccc(F)cc3OC(C)CNCCC(F)(F)F)c12` (stereo not shown) [Compound 8-2], the negative logarithm of the IC50 (pIC50) is 7.19. In the case of `Cc1c(C(N)=O)sc2ncnc(Nc3ccc(F)cc3O[C@@H](C)CN)c12` (racemic) [Compound 6-2, (R) and (S)-4-(2-(1-aminopropan-2-yloxy)-4-fluorophenylamino)-5-methylthieno[2,3-d]pyrimidine-6-carboxamide trifluoroacetate], the negative logarithm of the IC50 (pIC50) was 7.05.

Take `COCC(CF)Oc1cc(F)ccc1Nc1ncnc2sc(C(=O)NCCCN(C)C)c(C)c12` (stereo not shown) [Compound 32-24]: the pIC50 is 7.60. The same measure for `Cc1c(C(=O)O)sc2ncnc(Nc3ccc(F)cc3OCCC(F)(F)F)c12` [Compound 32-11]: 7.85; for `COC(=O)c1sc2ncnc(Nc3ccc(F)cc3OCCN)c2c1C` [Compound 9-2, Methyl 4-(2-(2-aminoethoxy)-4-fluorophenylamino)-5-methyl-thieno[2,3-d]pyrimidine-6-carboxylate hydrochloride]: 6.24; for `COC(=O)c1sc2ncnc(Nc3ccc(F)cc3OC(C)CC(C)(C)O)c2c1C` (stereo not shown) [Compound 20-1, Methyl 4-(4-fluoro-2-(4-hydroxy-4-methylpentan-2-yloxy)phenylamino)-5-methyl-thieno[2,3-d]pyrimidine-6-carboxylate]: 6.85. With `Cc1c(C(=O)NCCCN2CCOCC2)sc2ncnc(Nc3cccnc3OC(C)C)c12` [Compound 36-4], the pIC50 is 7.36. In the case of `Cc1c(C(=O)N[C@@H]2C[C@H]2N)sc2ncnc(Nc3ccc(F)cc3OC(CF)CF)c12` (relative stereo) [Compound 25, N-((trans)-2-Aminocyclopropyl)-4-(2-(1,3-difluoropropan-2-yloxy)-4-fluorophenylamino)-5-methylthieno[2,3-d]pyrimidine-6-carboxamide hydrochloride], the negative-log IC50 (pIC50) was 7.92.
